Measurements: US8580268B2, “CpG oligonucleotide analogs containing hydrophobic T analogs with enhanced immunostimulatory activity” (Coley Pharmaceutical GmbH, priority 2006, dated 2013)
Entries after “also recorded” stand apart in the source; their conditions may differ. Strand notation (5' to 3'): a small letter for the sugar, then the base; units joined by * are phosphorothioate-linked, units joined directly phosphodiester-linked; [ ] holds rarer units or linkages, { } end groups; capitals alone tell only the bases. [5IU] = 5-iodo-2'-deoxyuridine (JU); d = 2'-deoxy (DNA)

Key:
[1] = tested on: PBMC; experiment: B-cell proliferation in CFSE-labeled human PBMC; type: cell-based; conditions: CFSE-labeled PBMC from three donors, 5 days, CD19 staining
Method: Next the activity of modified P-class class ODN (SEQ ID NO:58, 60-62, FIG. 29a) (SEQ ID NO:64 and 67, FIG. 29b) was compared to that of an unmodified B-class ODN (SEQ ID NO:55), an unmodified C-class ODN (SEQ ID NO:54), a negative control ODN (SEQ ID NO:53), an unmodified P-class ODN (SEQ ID NO:56), LPS, R-848, SEB, and a poly[I]:[C] ODN. CFSE-labeled PBMC from three donors were incubated with the ODN for 5 days and then stained with a CD19 antibody. The percentage of B cells with reduced CFSE staining was determined.

[2] = tested on: BALB/c mice; experiment: In vivo murine IFN-alpha induction after SC injection (ELISA); design: species or system mouse; conditions: bled at 3 hr post injection
Method: (§1) Female BALB/c mice (6-8 weeks of age) were purchased from Charles River Canada (Quebec, Canada) and housed in micro-isolators in the Animal Care Facility at Coley Pharmaceutical Group Canada. All studies were conducted in accordance with the Animal Care Committee of Coley Canada under the guidance of the Canadian Council on Animal Care. All animals were naïve to CpG ODNs.
In order to determine the effect of the modified P-class ODN in vivo, BALB/c mice (5 per group) were injected SC with differing doses of ODN. Animals were bled at 3 hr post injection and plasma tested for IFN-alpha by ELISA. The activity of modified P-class ODN (SEQ ID NO:58, 60-62, 64, and 67) was compared to that of a B-class negative control (SEQ ID NO:55) and a negative control (SEQ ID NO:26).

[3] = biological target: T1, human TLR9 (Homo sapiens, UniProt Q9NR96); experiment: TLR9 luciferase assay (NF-κB reporter) in hTLR9-LUC-293 cells; type: cell-based; conditions: 16 h, stated in words relative to the comparator ODN
T1 construct: expressed in transfected cells
T1 sequence (Q9NR96 26-1032): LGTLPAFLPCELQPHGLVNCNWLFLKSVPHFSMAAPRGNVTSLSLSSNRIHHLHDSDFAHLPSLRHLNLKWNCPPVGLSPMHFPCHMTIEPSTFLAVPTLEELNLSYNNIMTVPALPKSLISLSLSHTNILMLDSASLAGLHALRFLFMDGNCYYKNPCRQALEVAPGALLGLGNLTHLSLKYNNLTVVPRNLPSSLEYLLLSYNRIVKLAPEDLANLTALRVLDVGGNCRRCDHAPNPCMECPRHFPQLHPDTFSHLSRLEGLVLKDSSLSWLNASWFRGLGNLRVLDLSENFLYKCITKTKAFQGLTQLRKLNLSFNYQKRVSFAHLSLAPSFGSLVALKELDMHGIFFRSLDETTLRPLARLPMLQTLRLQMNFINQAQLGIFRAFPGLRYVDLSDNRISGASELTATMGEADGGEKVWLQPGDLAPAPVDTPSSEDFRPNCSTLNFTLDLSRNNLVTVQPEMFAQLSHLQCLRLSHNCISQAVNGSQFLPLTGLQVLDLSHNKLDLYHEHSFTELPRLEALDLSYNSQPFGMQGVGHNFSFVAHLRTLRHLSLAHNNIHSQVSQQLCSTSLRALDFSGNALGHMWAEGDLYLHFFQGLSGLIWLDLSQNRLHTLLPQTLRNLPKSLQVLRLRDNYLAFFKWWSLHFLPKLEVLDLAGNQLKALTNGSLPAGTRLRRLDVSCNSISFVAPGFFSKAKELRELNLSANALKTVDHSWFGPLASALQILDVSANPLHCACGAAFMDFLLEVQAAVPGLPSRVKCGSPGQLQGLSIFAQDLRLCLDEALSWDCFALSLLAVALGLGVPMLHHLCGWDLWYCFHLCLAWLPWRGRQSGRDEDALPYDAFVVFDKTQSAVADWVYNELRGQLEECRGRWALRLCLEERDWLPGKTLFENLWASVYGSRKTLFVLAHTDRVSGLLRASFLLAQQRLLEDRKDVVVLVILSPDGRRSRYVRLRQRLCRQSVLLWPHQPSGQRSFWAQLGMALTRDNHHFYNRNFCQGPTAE
Method: HEK293 cells were transfected by electroporation with vectors expressing the respective human TLR and a 6xNF-κB-luciferase reporter plasmid. Stable transfectants (3×10^4 cells/well) were incubated indicated amounts of ODN for 16 h at 37° C. in a humidified incubator. Each data point was done in triplicate. Cells were lysed and assayed for luciferase gene activity (using the BriteLite kit from Perkin-Elmer, Zaventem, Belgium). Stimulation indices were calculated in reference to reporter gene activity of medium without addition of ODN.

[4] = tested on: BALB/c mouse splenocytes; experiment: Cytokine ELISA of mouse splenocyte culture supernatants; type: cell-based; conditions: BALB/c splenocyte supernatants at 6 hour (TNF-alpha) or 24 hours (IL-6, IL-10, IL-12)
Excerpt: Naïve BALB/c mouse splenocytes (from pools of 3-5 animals) were used for in vitro assays. Animals were anaesthetized with isoflurane and euthanized by cervical dislocation. Spleens were removed under aseptic conditions and placed in PBS+0.2% bovine serum albumin (Sigma Chemical Company). Spleens were then homogenized and splenocytes were re-suspended in RPMI 1640 (Life Technologies, Grand Island, N.Y.) tissue culture medium supplemented with 2% normal mouse serum (Cedarlane Laboratories, Ontario, Canada), penicillin-streptomycin solution (final concentration of 1000 U/ml and 1 mg/ml respectively; Sigma Chemical Company), and 5×10−5 M b-mercaptoethanol (Sigma Chemical Company).
In order to determine the efficacy of the modified ODN of the invention […], ODN with lipophilic T analogs were tested in isolated mouse splenocytes. BALB/c mouse splenocytes were isolated and incubated with modified B class (SEQ ID NO:13), unmodified B class (SEQ ID NO:37), and a non-CpG ODN (SEQ ID NO:26) (Table 5). Culture supernatants were collected at 6 hour (TNF-alpha) or 24 hours (IL-6, IL-10, IL-12) and cytokine concentration was measured by ELISA.

[5] = tested on: BALB/c mouse splenocytes; experiment: B cell proliferation in CFSE-stained mouse splenocytes (FACS); type: cell-based; conditions: 0.001-10 μg/ml ODN, 72 hours, CD19 FACS
Method: Caboxy-florescein diacetate, succimidyl ester (CFSE) (Invitrogen, Eugene, Oreg., USA) stained BALB/c mouse splenocytes (4×10^5/well) were incubated with different concentrations of ODN in a humidified 5% CO2 incubator at 37° C. for […]. Cells were then stained with PE conjugated anti-CD19 antibody (BD Pharmingen, San Diego, Calif., USA) for CD19 and B-cell proliferation was determined by FACS followed by analysis by ModFit Software V3.0 (Verity Software House Inc., Topsham, Me., USA).
ODN were then tested their ability to induce B cell proliferation in splenocytes. CFSE-stained BALB/c mouse splenocytes (4×10^5/well) were incubated with 0.001, 0.01, 0.1, 0.3, 1, 3 or 10 μg/ml of the indicated ODN (FIG. 14). At 72 hours post-incubation, cells were stained for cell surface marker CD19 and B-cell proliferation was determined by FACS followed by analysis by ModFit Software. […] The increase was most pronounced even at lower ODN concentration.

[6] = tested on: BALB/c mice; experiment: In vivo plasma cytokine production after SC injection (ELISA); design: species or system mouse
Method: as §1
To measure the effect of modified ODN in vivo, BALB/c mice (5 per group) were injected subcutaneously (SC) with 10, 50 or 100 μg of SEQ ID NO:13 or 100 μg of SEQ ID NO:37 in a total volume of 100 μl SC. Control group received 100 μl of PBS alone. Animals were bled by cardiac puncture at 1 hour post injection (TNF-alpha) or 3 hours post injection (IP-10). Plasma samples were assayed ELISA for TNF-alpha (FIG. 15a) and IP-10 (FIG. 15b).

[7] = tested on: human PBMC; experiment: IFN-alpha production in human PBMC (ELISA); type: cell-based
Method: (§2) Peripheral blood buffy coat preparations from healthy human donors were obtained from the Blood Bank of the University of Düsseldorf (Germany) and PBMC were purified by centrifugation over Ficoll-Hypaque (Sigma). Cells were cultured in a humidified incubator at 37° C. in RPMI 1640 medium supplemented with 5% (v/v) heat inactivated human AB serum (BioWhittaker) or 10% (v/v) heat inactivated FCS, 2 mM L-glutamine, 100 U/ml penicillin and 100 μg/ml streptomycin (all from Sigma).
(§3) PBMC were resuspended at a concentration of 5×10^6 cells/ml and added to 96 well round-bottomed plates […]. PBMC were incubated with ODN and culture supernatants (SN) were collected after the indicated time points. If not used immediately, SN were stored at −20° C. until required.
(§4) Amounts of cytokines in the SN were assessed using an in-house ELISA for IFN-α developed using commercially available antibody (PBL, New Brunswick, N.J., USA) or on the Luminex multiplex system (Luminex Corporation, 12212 Technology Boulevard, Austin, Tex. 78727-6115).

[8] = tested on: human PBMC; experiment: IL-6 induction in human PBMC (luminex); type: cell-based; conditions: human PBMC from three donors, 24 h
Method: as §2, §3, §4
Next the modified P-class ODN were tested for the ability to induce IL-6 in human PBMC. PBMC from three donors were incubated with ODN at concentrations as indicated for 24 h, followed by luminex 25-plex analysis of the supernatants for IL-6. The activity of modified P-class ODN (SEQ ID NO:58, 60-62, FIG. 28a) (SEQ ID NO:64 and 67, FIG. 28b) was compared to that of an unmodified B-class ODN (SEQ ID NO:55), and unmodified C-class ODN (SEQ ID NO:54), a negative control ODN (SEQ ID NO:53), and an unmodified P-class ODN (SEQ ID NO:56).

[9] = tested on: SaI/N tumor cells; experiment: Mouse SA1N tumor model; type: in vivo; conditions: A/J mice
Method: SA1N tumor model: Female A/J mice (10 per group) were injected SC with 5×10^5 SaI/N tumor cells on day 0. Mice were treated with 100 μg ODN or PBS alone given SC once weekly starting on day 8 post tumor induction. Animals were monitored for survival and tumor volume. Tumor size (the length and the width) was measured using a digital vernier caliper. Tumor volume was calculated by using the formula: Tumor volume=(0.4) (ab2), where a=large diameter and b=smaller diameter.
Next the modified P-class ODN were evaluated for their ability to reduce tumor volume mouse SA1N tumor model. Female A/J mice (10 per group) were injected SC with 5×10^5 SaI/N tumor cells on day 0. Mice were treated with 35 μg (FIG. 31a) or 100 μg (FIG. 31b) P-class ODN with a lipophilic substituted nucleotide analog (SEQ ID NO:60, 64, and 67), an unmodified C-class ODN, an unmodified B-class ODN (SEQ ID NO:55), or PBS alone. ODN were given SC once weekly starting on day 8 post tumor induction. Animals were monitored for survival and tumor volume.

## T*C*G*T*C*G*T*T*T*T*G*T*C*G*T*T*T*T*G*T*C*G*T*T [SEQ ID NO:55, reference compound]
[1]
  percentage of B cells with reduced CFSE staining: highest percentage of B cells after division
[2]
  plasma IFN-alpha induction: did not induce much murine IFN-alpha

## T*G*JU*C-G*T*T*T*T*T*T*T*T*T*T*T*T*T*T*T (DNA dT*dG*d[5IU]*dCdG*dT*dT*dT*dT*dT*dT*dT*dT*dT*dT*dT*dT*dT*dT*dT) [SEQ ID NO:13]
[3]
  TLR9 stimulation (NF-κB luciferase activity, relative stimulation index): greater stimulation of TLR9 activity over control; also recorded: more active in the assay than the parent ODN
[4]
  cytokine concentration (TNF-alpha, IL-6, IL-10, IL-12): dramatically increased levels of all cytokines tested
[5]
  B-cell proliferation: marked increase in B-cell proliferation
[6]; 1 hour post injection
  plasma TNF-alpha production: higher
[6]; 3 hours post injection
  plasma IP-10 production: higher

## JU*C-G*T*C*G*A*C*G*A*T*C*G*G*C*G*G*C*C*G*C*C*G*T (DNA d[5IU]*dCdG*dT*dC*dG*dA*dC*dG*dA*dT*dC*dG*dG*dC*dG*dG*dC*dC*dG*dC*dC*dG*dT) [SEQ ID NO:66, JU-modified P-class with phosphodiester bond in the CG dinucleotide]
[3]
  TLR9 stimulation (NF-κB luciferase activity, relative stimulation index): higher degree of TLR9 stimulation than the unmodified P class ODN; also recorded: reduced activity compared to the fully phosphorothioate SEQ ID NO:67
[7]; human PBMC incubated 48 hours, ELISA, P-class ODN
  IFN-alpha induction: reduced activity compared to SEQ ID NO:67

## JU*C*G*A*C*G*T*C*G*A*T*C*G*G*C*G*C*G*C*G*C*C*G*T (DNA d[5IU]*dC*dG*dA*dC*dG*dT*dC*dG*dA*dT*dC*dG*dG*dC*dG*dC*dG*dC*dG*dC*dC*dG*dT) [SEQ ID NO:61, JU-modified P-class]
[8]
  IL-6 induction: slightly higher activation of IL-6
[2]
  plasma IFN-alpha induction: slightly higher IFN-alpha induction

## JU*C-G*A*C*G*T*C*G*A*T*C*G*G*C*G*C*G*C*G*C*C*G*T (DNA d[5IU]*dCdG*dA*dC*dG*dT*dC*dG*dA*dT*dC*dG*dG*dC*dG*dC*dG*dC*dG*dC*dC*dG*dT) [SEQ ID NO:60, JU-modified P-class]
[8]
  IL-6 induction: slightly higher activation of IL-6
[2]
  plasma IFN-alpha induction: slightly higher IFN-alpha induction
[9]; 35 μg ODN SC once weekly from day 8
  reduction in tumor volume: greatest reduction in tumor volume
[9]; 100 μg ODN SC once weekly from day 8
  reduction in tumor volume: effective in reducing tumor volume

## T*G*T*C-G*T*T*T*T*T*T*T*T*T*T*T*T*T*T*T (DNA dT*dG*dT*dCdG*dT*dT*dT*dT*dT*dT*dT*dT*dT*dT*dT*dT*dT*dT*dT) [SEQ ID NO:1, reference compound]
[7]; human PBMC, 24 h, supernatants by ELISA, B-class ODN
  IFN-alpha production: virtually inactive
